In one test the test system is pri-miR-374. Briefly: pri-miR-374 transcript levels in TALH of treated mouse kidneys (real-time PCR). It counts as in vivo. As to conditions: for pri-miR-374 levels versus control: 8 hrs. The text has this: (§1) Total RNA including microRNA was extracted using Trizol (Invitrogen). Cellular mRNA was reverse transcribed using the Superscript-III kit (Invitrogen), followed by real-time PCR amplification using SYBR Green PCR Master Mix (Bio-Rad) and Eppendorf Realplex2S system. The design of claudin-14 primers was described above. The design of pri-miRNA primers was according to Ma et al., (2010). Results were expressed as 2^−ΔCt values with ΔCT=Ctgene−Ctβ-actin.
(§2) To measure the transcriptional level for microRNA gene in vivo in the kidney, the inventors designed primers (see Methods; Table 2) to amplify the pri-miRNA molecule, the original transcript for microRNA gene that had not yet been subjected to any nuclear or cellular processing. Because both miR-9 and miR-374 had broader localization profiles along the nephron, the inventors isolated the TALH tubular cells for pri-miRNA analyses from the mouse kidney described elsewhere in this study. WT mice (strain: C57BL/6) were treated with NPS2143 or cinacalcet as described for claudin-14 analyses and assayed for pri-miRNA levels in isolated TALH cells at 2 hrs and 8 hrs respectively. […] NPS2143 and cinacalcet also profoundly regulated pri-miR-374. […] The expression levels of miR-9-1 and miR-374 genes were both inversely correlated with that of claudin-14 gene in the kidney, compatible with the silencing role of microRNA in regulating its target gene.
(§3) Total RNA including microRNA was extracted using Trizol (Invitrogen). Cellular mRNA was reverse transcribed using the Superscript-III kit (Invitrogen), followed by real-time PCR amplification using SYBR Green PCR Master Mix (Bio-Rad) and Eppendorf Realplex2S system. The design of claudin-14 primers was described before by Gong et al., 2012. The design of pri-miRNA primers and ChIP primers was according to Gong et al., 2013. Results were expressed as 2^−ΔCt values with ΔCT=Ctgene−Ctβ-actin.
(§4) Total RNA including microRNA was extracted using Trizol (Invitrogen). Cellular mRNA was reverse transcribed using the Superscript-III kit (Invitrogen), followed by real-time PCR amplification using SYBR Green PCR Master Mix (Bio-Rad) and Eppendorf Realplex2S system. The design of claudin-14 primers was described before by Gong. Y., et al., 2012. The design of pri-miRNA primers was according to Ma. L., et al., 2010. Results were expressed as 2^−ΔCt values with ΔCT=Ctgene−Ctβ-actin.
(In general: Real-time PCR tracks product formation cycle by cycle.)

A further test deals with miR-374 promoter. Briefly: ChIP over miR-374 promoter in TALH cells of treated mice. It counts as in vivo, mouse. Particulars: for H3K9 and H3K14 acetylation levels, miR-374 promoter region / fold enrichment of NFATc1 over miR-374 promoter region: 30 mg/kg BW−1, 2 hrs; for H3K9 and H3K14 acetylation levels, miR-374 promoter region: higher than vehicle level; for fold enrichment of NFATc1 over miR-374 promoter region: versus vehicle. On the procedure: (§5) Freshly isolated TALH cells or primary TALH cell cultures were cross-linked in 1% paraformaldehyde (pH7.0) for 10 min at room temperature. The cross-linked cells were lysed following to instruction of MAGnify ChIP system (Invitrogen). Chromatin was sonicated into 500 bp fragments with Bioruptor UCD-200 (High power, 15 cycles of 30 seconds ON, 30 seconds OFF; Diagenode). Sheared chromatin was precipitated with antibody-bound Dynabeads (Invitrogen). Following reverse crosslink and DNA extraction, antibody-bound DNA was eluted and analyzed with real-time PCR. Two criteria for normalization were applied: fold enrichment over anti-IgG background signal and input control over chromatin input signal.
as §5, with “OFF,” for “OFF;”

The test system of a further test is claudin-14 protein. Briefly: claudin-14 protein levels in freshly isolated TALH cells pooled from treated mouse kidneys (western blot). Particulars: for claudin-14 protein levels, change: 30 mg/kg BW−1 per day for 6 days, 24 hrs following the last treatment. Format: in vivo. On the procedure: (§6) An immunomagnetic separation method was used to isolate the TAL cells from the mouse kidney (Hou et al., 2009). Antibodies against the TAL cell specific surface antigen, Tamm-Horsfall protein (THP), were coated onto the paramagnetic polystyrene beads (Dynabeads M-280; Dynal), allowing immunoprecipitation of the TAL cells from collagenase digested mouse kidneys. The isolated cells were plated in DMEM medium supplemented with 10% FBS, penicillin/streptomycin, and 1 mM sodium pyruvate for 16 hours, followed by immediate transfection with NFAT or antagomirs.
Because of the low abundance of claudin-14 proteins in the whole kidney, an immunomagnetic separation method was adapted to freshly isolate the TALH tubular cells from the kidneys of each treated mouse, pooled the TALH cells from all animals (N=5) within each treatment group and quantified claudin-14 protein levels by western blot. […] Claudin-14 proteins were immunostained in mouse kidneys to investigate changes in TJ localization.
An immunomagnetic separation method was used to isolate the TALH cells from the mouse kidney. (Gong Y, et al. 2012 and Gong Y, et al. 2013) Antibodies against the TALH cell specific surface antigen, Tamm-Horsfall protein, were coated onto the paramagnetic polystyrene beads (Dynabeads M-280; Dynal), allowing immunoprecipitation of the TALH cells from collagenase digested mouse kidneys. The isolated cells were plated in DMEM medium supplemented with 10% FBS, penicillin/streptomycin, and 1 mM sodium pyruvate for 16 hours, followed by immediate treatment.
as §6, with “TALH” for “TAL”, “kidney. (Gong, Y.,” for “kidney (Hou”, “2012; Hou, J., et al., 2009)” for “2009).”, “(THP; a GPI-anchored protein that is exclusively expressed in the TALH and the early part of the DCT,) (Stricklett, P. K., et al., 2003; Bernascone, I., et al., 2010)” for “(THP),”, “NFAT.” for “NFAT or antagomirs.”
Changes in claudin-14 protein levels were captured as early as 2 hrs following a single oral dose of NPS2143 or cinacalcet (30 mg/kg BW^−1) treatment. Because of the low abundance of claudin-14 proteins in the whole kidney, the inventors adapted an immunomagnetic separation method to freshly isolate the TALH tubular cells from the kidneys of each treated mouse (described in Gong, Y., et al., 2012 and Hou, J., et al. 2009; see Methods), pooled the TALH cells from all animals (N=5) within each treatment group, isolated plasma membrane proteins and quantified claudin-14 protein levels by western blot. […] Although claudins were previously considered static molecules sequestered in the tight junction, several recent studies have found similarly rapid turnover rate of less than 60 min for claudins (see Discussion). Claudin-14 proteins were inummuostained in mouse kidneys to investigate changes in TJ localization.
Background: In western blotting, separated proteins are transferred to a membrane and probed.

For a further test, the system named is pri-miR-9-1. Briefly: pri-miR-9-1 transcript levels in TALH of treated mouse kidneys (real-time PCR). Format: in vivo. Particulars: for changes in pri-miR-9-1 levels: by 8 hrs.
Description: as §1, §2, §3, §4

Setting [1] is: cyclosporine-A pre-treated animals, 30 mg/kg BW−1, 2 hrs.
Setting [2] is: TPTX mice, 30 mg/kg BW−1, 2 hrs.

As to `CC(C)(Cc1ccc2ccccc2c1)NC[C@@H](O)COc1cccc(Cl)c1C#N` [NPS2143], in the test on pri-miR-374 (30 mg/kg BW−1, 2 hrs), the “pri-miR-374, upregulation” value is on record as 2.91 fold. In the test with pri-miR-374 (30 mg/kg BW−1), the “pri-miR-374 levels versus control” value is listed as “not different from control”. Besides, in the test with pri-miR-374 (TPTX mice, 30 mg/kg BW−1), the “pri-miR-374 level, change” value was “failed to elicit a significant change”. The “pri-miR-374 mRNA levels, change” value in the test with pri-miR-374 (setting [1]) is recorded as “failed to elicit any significant change”. Besides, in the test on miR-374 promoter, the “H3K9 and H3K14 acetylation levels, miR-374 promoter region” value amounted to 1.93 fold; the “fold enrichment of NFATc1 over miR-374 promoter region” value is 1.51 fold. In addition, in the test on claudin-14 protein, the “claudin-14 protein levels, change” value is “Neither NPS2143 nor cinacalcet caused changes”. Further, in the test with claudin-14 protein (single oral dose 30 mg/kg BW−1, 2 hrs, densitometric scale), the “claudin-14 protein levels, percent of the vehicle treatment” value worked out at 32%. Moreover, the “changes in pri-miR-9-1 levels” value in the test on pri-miR-9-1 (30 mg/kg BW−1) is “dissipated completely”. In addition, the “pri-miR-9-1 level, increase” value with pri-miR-9-1 (TPTX mice, 30 mg/kg BW−1) was found to be 19%. For the same compound, in the test with pri-miR-9-1 (setting [1]), the “pri-miR-9-1 mRNA levels, change” value is “failed to elicit any significant change”. Further, in the test on pri-miR-9-1 (single-dose 30 mg/kg BW−1, 2 hrs), the “pri-miR-9-1 transcript level, increase” value was found to be 7.65 fold.
For `O=C(CCCCCCC(=O)Nc1ccccc1)NO` [SAHA, Suberanilohydroxamic acid], the “transcriptional levels of miR-374 gene (pri-miR-374), increase” value in the test with pri-miR-374 (25 mg/kg BW−1, 4 hrs) worked out at 1.85 fold. In addition, in the test on miR-374 promoter (25 mg/kg BW−1, 4 hrs), the “H3K9 and H3K14 acetylation, miR-374 promoter, increase” value is given as 2.45 fold; the “NFAT binding to miR-374 promoter” value is reported as “not affected”. Moreover, the “CLDN14 protein levels, reduction” value in the test on claudin-14 protein (25 mg/kg BW−1, 4 hr) amounted to 60%. The “transcriptional levels of miR-9-1 gene (pri-miR-9-1), increase” value in the test on pri-miR-9-1 (25 mg/kg BW−1, 4 hrs) was 1.49 fold.
In the case of `C[C@@H](NCCCc1cccc(C(F)(F)F)c1)c1cccc2ccccc12` [cinacalcet], the “pri-miR-374, downregulation” value in the test with pri-miR-374 (30 mg/kg BW−1, 2 hrs) amounted to 71%. Besides, in the test on pri-miR-374 (30 mg/kg BW−1), the “pri-miR-374 levels versus control” value is “not different from control”. The “pri-miR-374 level, reduction” value with pri-miR-374 (setting [2]) was 53%. The “pri-miR-374 mRNA levels, decrease” value in the test with pri-miR-374 (setting [1]) is recorded as 39%. In the test with miR-374 promoter, the “H3K9 and H3K14 acetylation levels, miR-374 promoter region” value is “not”; the “fold enrichment of NFATc1 over miR-374 promoter region” value is reported as “without significant effect”. In addition, the “claudin-14 protein levels, change” value in the test with claudin-14 protein is reported as “Neither NPS2143 nor cinacalcet caused changes”. Further, the “claudin-14 protein levels, upregulation” value in the test with claudin-14 protein (single oral dose 30 mg/kg BW−1, 2 hrs) is 2.98 fold. In the test with pri-miR-9-1 (30 mg/kg BW−1, 2 hrs), the “pri-miR-9-1 transcript level, decrease” value worked out at 88%. Also, the “changes in pri-miR-9-1 levels” value in the test with pri-miR-9-1 (30 mg/kg BW−1) is listed as “dissipated completely”. Also, the “pri-miR-9-1 level, reduction” value in the test on pri-miR-9-1 (setting [2]) is on record as 55%. Further, the “pri-miR-9-1 mRNA levels, decrease” value in the test on pri-miR-9-1 (setting [1]) amounted to 34%.

These data come from patent US20140242609A1, “Diagnosis and treatment of kidney stones, methods and compositions therefor” (Washington University, priority 2013, published 2014).
